Key:
[1] = system: CD4+ and CD8+ T-cells in tumor; experiment: T-cell infiltration in tumor tissues by flow cytometry; assay type: in vivo, C3H/HeJ mice; conditions: tumor tissue after sacrifice
Procedure: (§1) To evaluate T-cell responses and the immune profile, tumor tissues and blood were harvested after sacrifice. aPD-1, being an ICB, could be a positive regulator of TILs. The infiltration of CD4+ T-cells and CD8+ T-cells into tumor cells was assessed through flow cytometry. […] To reveal the cellular mechanism in vivo, the production of IFN-γ and TNF-α was determined using ELISA kit in mice serum. […] (FIG. 5E)
A piece of tumor was collected from each mouse for flow cytometry. After execution, the tissues were rinsed with PBS and maintained in PBS at 4° C. The tumor tissues were sliced into very small pieces and sieved through 100 μm cell strainer (BD Falcon, USA). Subsequently, the sliced tissue was pressed using the plunger end of a syringe. The supernatant was decanted and the pellet resuspended the pellet in Flow Cytometry Staining Buffer (PBS plus 10% FBS). The solution was separated into two Eppendorf tubes with a volume of 300 μL, then 1 μL primary antibody was added into one of the two tubes individually. The three primary antibodies used were rabbit anti-CD4 (Abcam, Cambridge, Mass., USA), rat anti-CD8 (Abcam, USA), and mouse anti-foxp3 (Abcam,USA). […]

[2] = system: SCC VII-luc tumor homograft; experiment: Antitumor efficiency in immunocompetent murine tumor homograft model; assay type: in vivo, C3H/HeJ mice
Source text: We further investigated tumor inhibition on an immunocompetent murine tumor homograft model. SCC VII cell lines were subcutaneously inoculated into the right flank of C3H/HeJ mice to obtain a superficial tumor. […] Tumor volume was monitored using a Vernier caliper before the treatment and 3 days after each treatment. Furthermore, tumor growth was double confirmed using bioluminescent images (FIG. 3A). […] The ineffective therapeutic role of aPD-1, however, may be due to the following reasons. First, the renovated T cells may be too exhausted that they display impaired effector function with limited proliferative potential ^26. Second, cancer antigens may be “masked”; therefore, they cannot be identified by T-cells ^27. Third, the tumor microenvironment may contain multiple inhibitory immune cells, such as tumor-associated macrophages, which overwhelm the T-cells into have adverse effects ^28. Although the exact reason was unclear, the animal model in this study was unresponsive to systemic aPD-1 immunotherapy.
Male and female C3H/HeJ mice were purchased from The Jackson Laboratory (Bar Harbor, Me., USA) and bred in the Laboratory Animal Unit in the University of Hong Kong. All animal procedures were performed in accordance with a protocol approved by the Committee on the Used of Live Animals in Teaching and Research (CULATR, HKU). An immunocompetent murine tumor homograft model was established by injecting 1×10^6 SCC VII-luc cells suspended in 100 μL Hanks' balanced salt solution (HBSS, Gibco, USA) on the right flank of the mouse. […] The treatments were administered once the tumor volume reached 10 mm^3 and each treatment was administered every 3 days and lasted for 3 cycles. […] The tumor size was monitored by both the bioluminescence signals and the Vernier calipers every 3 days. Tumor volume was calculated as 0.5× long diameter×short diameter^2. Tumor volume and tumor wet weight were also measured after sacrifice. Tumor proliferation was determined in sliced tumor tissues using anti-Ki67 (Abcam, USA) following the IHC protocol.

IFN-γ, TNF-α = experiment: Serum IFN-γ and TNF-α ELISA; assay type: in vivo, C3H/HeJ mice
Procedure: as §1
Blood was collected from mice and maintained in anticoagulative tubes ([…]® Blood Collection Tubes, K3E K3EDTA, Greiner Bio-One International, Australia). Blood was centrifuged at 1500 g for 10 minutes at 4° C., then plasma was transferred into a new Eppendorf. After centrifugation at 2000 g for 15 mins at 4° C., the supernatant was collected to obtain the serum of mice. IFN-γ and TNF-α in the serum were detected using Mouse IFN-γ ELISA kit (Thermo Fisher Scientific, USA) and Mouse TNF-α ELISA kit (Thermo Fisher Scientific, USA), respectively.

cell lines = experiment: Cell apoptosis (APO-BrdU TUNEL) and cell cycle (PI) by flow cytometry; assay type: cell-based; conditions: Pt 100 μM, 4 h
Procedure: A large number of 3hydroxyl ends appeared when DNA strands became fragmented, and they were labeled with BrdUTP and terminal deoxynucleotidyl transferase (TdT) using the TUNEL technique. After DNA incorporation, BrdU could be detected through anti-BrdU antibody.
Cell apoptosis was detected using flow cytometry with the APO-BrdU™ tranferase dUTP nick end laveling (TUNEL) Assay Kit (Thermo Fisher Scientific, USA), and the phase of the cell cycle was determined using propidium iodide (PI, Thermo Fisher Scientific, USA) following the manufacturer's protocol. Cells were fixed with 1% paraformaldehyde (PFA) or ethanol before staining, and they were analyzed through flow cytometry (BD FACSVerse™, BD, Franklin Lake, N.J., USA) immediately after staining. All data were analyzed using FlowJo (7.6.1, BD, USA).

[3] = H&E staining of liver, lung, kidney and spleen; assay type: in vivo, C3H/HeJ mice
Source text: Liver, lung, kidney and spleen of each group were collected after sacrifice for hematoxylin and eosin (H&E) staining to analyze whether drugs induced toxicity to these organs (FIG. 6C).
The livers, kidneys, spleens and lungs were collected after sacrifice and fixed in 4% PFA. After embedding into paraffin, the tissues were sliced into 5-μm sections for H&E staining. Images of the tissues were collected using a polarized light microscope (ECLIPSE LV100POL, Japan). The BUN and total IgG level in the serum were detected using a urea nitrogen detection kit (Thermo Fisher Scientific, USA) and a mouse IgG total ELISA kit (ThermoFisher Scientific, USA) respectively.

[4] = system: SCC VII-luc tumor homograft; experiment: Ki-67 IHC cell proliferation in tumor tissue sections; assay type: in vivo, C3H/HeJ mice
Procedure: Cell proliferation was further confirmed through IHC in formalin-fixed paraffin-embedded tumor tissue sections. […] Tumor infiltrating lymphocytes (TILs) like CD4+ cells and CD8+ infiltrated the tumor tissue and started to proliferate after aPD-1 treatment. […] TILs attacked the tumor tissues and killed the tumor cells afterwards. Whether these proliferated cells were T-cells or tumor cells were further confirmed through flow cytometry. Additionally, tumor cell apoptosis was assessed through in situ TUNEL assay (FIG. 4B & 4D). […] In sum, aPD-1-CDDP-NPs MN can not only increase the amount of activated T-cells but also kill tumor cells.
Male and female C3H/HeJ mice were purchased from The Jackson Laboratory (Bar Harbor, Me., USA) and bred in the Laboratory Animal Unit in the University of Hong Kong. All animal procedures were performed in accordance with a protocol approved by the Committee on the Used of Live Animals in Teaching and Research (CULATR, HKU). […] The tumor size was monitored by both the bioluminescence signals and the Vernier calipers every 3 days. Tumor volume was calculated as 0.5× long diameter×short diameter^2. Tumor volume and tumor wet weight were also measured after sacrifice. Tumor proliferation was determined in sliced tumor tissues using anti-Ki67 (Abcam, USA) following the IHC protocol.

SMILES: N.N.[Cl][Pt][Cl] [CDDP, cis-Diammineplatinum(II)dichloride]
- CD8+ T-cells among tumor cells [1]: 4.478%
- antitumor effect (in words) ([2]; SCC VII homograft, three treatments): limited treatment efficacy
- tumor volume compared to control group (in words) ([2]; mouse, in vivo): no difference
- tumor weight compared to control group (in words) ([2]; mouse, in vivo): significantly reduced
- IFN-γ level in serum (IFN-γ, TNF-α): lower IFN-γ levels than other five groups
- cell apoptosis (cell lines): 2.79%
- kidney histology (H&E) ([3]; kidney): severe toxic tubular necrosis
- liver histology (H&E) ([3]; liver): some alterations were found in the liver parenchyma
- lung histology (H&E) ([3]; lung): diffuse damage of the pulmonary alveoli and severe inflammatory infiltration
- spleen histology (H&E) ([3]; spleen): white pulp was evidently reduced
- cells continuing to proliferate (Ki-67) [4]: 25%
